Measurements as given in BindingDB's records for doi:10.1016/j.ejmech.2014.08.060 (European Molecular Biology Laboratory, 2014).

What was measured:
[1] = target: Protein tyrosine phosphatase type IVA 3 (Homo sapiens, UniProt O75365); assay: Inhibition of PRL3 (unknown origin) using DiFMUP as fluorogenic phosphate substrate assessed as DiFMUP dephosphorylation
[2] = target: T1, Protein tyrosine phosphatase type IVA 2 (Homo sapiens, UniProt Q12974); assay: Inhibition of PRL2 (unknown origin) using DiFMUP as fluorogenic phosphate substrate assessed as DiFMUP dephosphorylation
T1 sequence (Q12974 whole entry): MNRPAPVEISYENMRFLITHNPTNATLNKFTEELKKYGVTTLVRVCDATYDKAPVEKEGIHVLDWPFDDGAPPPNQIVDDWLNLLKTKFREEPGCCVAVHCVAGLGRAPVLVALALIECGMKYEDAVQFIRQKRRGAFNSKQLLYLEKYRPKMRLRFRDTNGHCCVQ

[3] = target: T2, Protein tyrosine phosphatase type IVA 1 (Homo sapiens, UniProt Q93096); assay: Inhibition of PRL1 (unknown origin) using DiFMUP as fluorogenic phosphate substrate assessed as DiFMUP dephosphorylation
T2 sequence (Q93096 whole entry): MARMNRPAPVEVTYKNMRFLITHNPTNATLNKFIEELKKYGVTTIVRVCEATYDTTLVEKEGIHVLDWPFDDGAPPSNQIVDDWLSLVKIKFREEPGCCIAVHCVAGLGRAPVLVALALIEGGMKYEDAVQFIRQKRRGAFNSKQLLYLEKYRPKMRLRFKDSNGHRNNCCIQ

Protein tyrosine phosphatase type IVA 3, sequence (O75365 whole entry): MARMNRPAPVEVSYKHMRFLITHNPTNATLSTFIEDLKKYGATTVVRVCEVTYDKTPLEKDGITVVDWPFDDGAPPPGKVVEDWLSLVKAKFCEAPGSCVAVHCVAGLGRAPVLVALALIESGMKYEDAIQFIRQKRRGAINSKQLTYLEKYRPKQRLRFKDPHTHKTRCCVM

Row | IC50 [1] [µM] | IC50 [2] [µM] | IC50 [3] [µM] | Compound
1 | 102 | 188 | 209 | O=C(O)c1ccc[n+]2c([O-])c(-c3ccccc3)sc12
2 |  | 188 | 35 | O=C1CSC(=S)N1 [CHEBI:8830]
